Target: VEGFR-2 (Homo sapiens, UniProt P35968)
Test: In vitro VEGFR-2 tyrosine kinase inhibitory assay (Z'-LYTE, SelectScreen)
Assay type: biochemical
Settings: 10 µM single dose
Protocol: The target compounds were evaluated for their in vitro inhibitory activities against EGFR, VEGFR-2, and HDAC6. The EGFR and VEGFR-2 inhibitory assays were performed at Thermo Fischer Scientific, Madison, WI, USA (SelectScreenServices@thermofisher.com). The HDAC inhibitory assays were performed at BPS Bioscience, San Diego, CA, USA (www.bpsbioscience.com). Initially, all of the synthesised target compounds were evaluated for their percent inhibitory activity against EGFR, VEGFR-2, and HDACs at 10 µM single dose concentration, in which their mean percent inhibition is summarised in (Figure 5, Tables 1 and [2]). Representative compounds were evaluated for their percent inhibitory activity against EGFR and VEGFR-2 at 6 different concentrations (0.1 nM, 1 nM, 10 nM, 100 nM, 1 µM, 10 µM) to subsequently calculate their IC50 values (Table 3). Additionally, all of the synthesised target compounds were submitted to the National Cancer Institute “NCI” Bethesda, Maryland, USA (www.dtp.nci.nih.gov), to evaluate theirs in vitro antiproliferative activities against NCI 60- cancer cell line panel.
In vitro enzyme inhibition determination for the synthesised compounds was carried out in Thermo Fischer Scientific, Madison, WI, USA (SelectScreenServices@thermofisher.com). The EGFR and VEGFR-2 tyrosine kinase % inhibitory activity at a single-dose concentration of 10 µM was performed initially then representative compounds were evaluated at single-dose concentrations of (0.1 nM, 1 nM, 10 nM, 100 nM, 1 µM) using ZYLTE technology. A fluorescence-based, coupled-enzyme format is employed in the biochemical assay and depends on the sensitivity of proteolytic cleavage to non-phosphorylated and phosphorylated peptides. Then IC50 values for selected compounds were determined by GraphPad Prism at Misr international university.

Sequence of VEGFR-2 (P35968 20-1356): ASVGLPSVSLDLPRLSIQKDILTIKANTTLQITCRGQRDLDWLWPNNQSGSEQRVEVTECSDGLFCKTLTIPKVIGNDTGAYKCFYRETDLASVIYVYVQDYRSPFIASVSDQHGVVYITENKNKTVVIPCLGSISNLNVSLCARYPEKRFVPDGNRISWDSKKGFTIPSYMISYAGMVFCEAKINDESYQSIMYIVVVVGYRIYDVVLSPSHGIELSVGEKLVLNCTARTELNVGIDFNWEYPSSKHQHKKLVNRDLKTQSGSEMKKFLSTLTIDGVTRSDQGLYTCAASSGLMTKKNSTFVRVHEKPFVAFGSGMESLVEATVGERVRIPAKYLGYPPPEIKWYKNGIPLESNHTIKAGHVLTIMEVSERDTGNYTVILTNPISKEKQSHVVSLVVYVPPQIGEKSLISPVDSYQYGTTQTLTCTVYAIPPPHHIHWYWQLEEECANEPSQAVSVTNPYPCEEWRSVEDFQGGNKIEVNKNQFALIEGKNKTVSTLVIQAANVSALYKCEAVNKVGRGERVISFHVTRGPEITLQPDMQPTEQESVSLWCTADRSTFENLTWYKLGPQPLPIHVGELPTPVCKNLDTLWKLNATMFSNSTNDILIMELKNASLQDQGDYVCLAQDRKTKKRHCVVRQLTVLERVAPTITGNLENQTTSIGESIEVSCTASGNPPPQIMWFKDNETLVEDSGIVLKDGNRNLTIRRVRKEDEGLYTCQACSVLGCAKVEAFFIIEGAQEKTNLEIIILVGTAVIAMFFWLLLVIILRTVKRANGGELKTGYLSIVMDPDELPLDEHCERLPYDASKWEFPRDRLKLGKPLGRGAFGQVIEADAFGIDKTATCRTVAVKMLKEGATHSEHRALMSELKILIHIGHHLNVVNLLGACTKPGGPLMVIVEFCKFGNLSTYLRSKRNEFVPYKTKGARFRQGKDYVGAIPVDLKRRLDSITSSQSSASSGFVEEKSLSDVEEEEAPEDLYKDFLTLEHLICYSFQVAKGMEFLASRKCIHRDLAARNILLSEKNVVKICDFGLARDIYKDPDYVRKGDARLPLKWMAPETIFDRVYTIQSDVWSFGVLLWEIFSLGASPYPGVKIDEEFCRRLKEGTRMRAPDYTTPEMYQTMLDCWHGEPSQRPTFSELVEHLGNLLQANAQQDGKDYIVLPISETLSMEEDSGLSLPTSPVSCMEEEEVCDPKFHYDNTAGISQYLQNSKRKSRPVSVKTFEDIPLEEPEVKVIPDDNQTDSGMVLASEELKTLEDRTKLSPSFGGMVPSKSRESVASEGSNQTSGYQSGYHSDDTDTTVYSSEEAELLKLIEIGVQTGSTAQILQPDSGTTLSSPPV

Q: For `CCOC(=O)CCNC(=O)c1sc2ncnc(Nc3ccc(Cl)cc3)c2c1C` [Compound 17c], which inhibition at 10 µM is on record?
A: 87%

Test system: not given
Test: not given
Settings: not given

Q: Which melting point does the source give for `CCOC(=O)CCCNC(=O)c1sc2ncnc(Nc3ccccc3)c2c1C` [Compound 18b, Ethyl 4–(5-methyl-4-(phenylamino)thieno[2,3-d]pyrimidine-6-carboxamido)butanoate] here?
A: 145 to 147 °C

Q: With `CCOC(=O)CCNC(=O)c1sc2ncnc(Nc3ccccc3)c2c1C` [Compound 17b, Ethyl 3–(5-methyl-4-(phenylamino)thieno[2,3-d]pyrimidine-6-carboxamido)propanoate] as the molecule, how does the melting point read?
A: 206 °C

Q: For `CCOC(=O)c1sc2ncnc(Nc3ccc(NC(=O)Nc4cccc(OC)c4)cc3)c2c1C` [Compound 6b, Ethyl 4–(4-(3–(3-methoxyphenyl)ureido)phenylamino)-5-methylthieno[2,3-d]pyrimidine-6-carboxylate], which melting point is on record?
A: 220 to 222 °C

Q: Which melting point does the source give for `CCOC(=O)CCCNC(=O)c1sc2ncnc(Nc3ccc(NC(=O)Nc4ccccc4)cc3)c2c1C` [Compound 10a, Ethyl 4–(5-methyl-4–(4-(3-phenylureido)phenylamino)thieno[2,3-d]pyrimidine-6-carboxamido)butanoate] here?
A: 219 to 221 °C

Q: For `CCOC(=O)c1sc2ncnc(Nc3ccc(Cl)cc3)c2c1C` [Compound 14c, Ethyl 4–(4-chlorophenylamino)-5-methylthieno[2,3-d]pyrimidine-6-carboxylate], which melting point is on record?
A: 174 to 176 °C

Q: With `CCOC(=O)c1sc2ncnc(Nc3ccc4[nH]cnc4c3)c2c1C` [Compound 14a, Ethyl 4-(1H-benzo[d]imidazol-5-ylamino)-5-methylthieno[2,3-d]pyrimidine-6-carboxylate.] as the molecule, how does the melting point read?
A: 250 to 251 °C

Q: Which melting point does the source give for `CCOC(=O)CCCNC(=O)c1sc2ncnc(Nc3ccc(F)c(Cl)c3)c2c1C` [Compound 18d, Ethyl 4–(4-(3-chloro-4-fluorophenylamino)-5-methylthieno[2,3-d]pyrimidine-6-carboxamido)butanoate] here?
A: 131 to 133 °C

Q: With `CCOC(=O)c1sc2ncnc(Nc3ccc(NC(=S)Nc4ccccc4)cc3)c2c1C` [Compound 6d, Ethyl 5-methyl-4–(4-(3-phenylthioureido)phenylamino)thieno[2,3-d]pyrimidine-6-carboxylate] as the molecule, how does the melting point read?
A: 173 to 175 °C

Q: Which melting point does the source give for `CCOC(=O)CCNC(=O)c1sc2ncnc(Nc3ccc(NC(=O)Nc4cccc(OC)c4)cc3)c2c1C` [Compound 9b, Ethyl 3–(4-(4–(3-(3-methoxyphenyl)ureido)phenylamino)-5-methylthieno[2,3-d]pyrimidine-6-carboxamido)propanoate] here?
A: 250 °C

Q: Which melting point does the source give for `CCOC(=O)CCNC(=O)c1sc2ncnc(Nc3ccc(F)c(Cl)c3)c2c1C` [Compound 17d, Ethyl 3–(4-(3-chloro-4-fluorophenylamino)-5-methylthieno[2,3-d]pyrimidine-6-carboxamido)propanoate] here?
A: 184 °C

Q: For `CCOC(=O)c1sc2ncnc(Nc3ccc(NC(=O)Nc4ccccc4)cc3)c2c1C` [Compound 6a, Ethyl 5-methyl-4–(4-(3-phenylureido)phenylamino)thieno[2,3-d]pyrimidine-6-carboxylate], which melting point is on record?
A: 319 to 322 °C

Q: With `CCOC(=O)c1sc2ncnc(Nc3ccc(NC(=O)Nc4cccc(C(F)(F)F)c4)cc3)c2c1C` [Compound 6c, Ethyl 4–(4-(3–(3-trifluromethyphenyl)ureido)phenylamino)-5-methylthieno[2,3-d]pyrimidine-6-carboxylate] as the molecule, how does the melting point read?
A: 305 to 307 °C

Q: For `CCOC(=O)c1sc2ncnc(Nc3ccccc3)c2c1C` [Compound 14b, Ethyl 5-methyl-4-(phenylamino)thieno[2,3-d]pyrimidine-6-carboxylate], which melting point is on record?
A: 170 to 172 °C

Q: For `CCOC(=O)c1sc2ncnc(Nc3ccc(F)c(Cl)c3)c2c1C` [Compound 14d, Ethyl 4–(3-chloro-4-fluorophenylamino)-5-methylthieno[2,3-d]pyrimidine-6-carboxylate], which melting point is on record?
A: 154 to 156 °C

Q: For `CCOC(=O)CCNC(=O)c1sc2ncnc(Nc3ccc(Cl)cc3)c2c1C` [Compound 17c], which melting point is on record?
A: 202 °C

Q: Which melting point does the source give for `CCOC(=O)CCCNC(=O)c1sc2ncnc(Nc3ccc(NC(=O)Nc4cccc(C(F)(F)F)c4)cc3)c2c1C` [Compound 10c, Ethyl 4–(5-methyl-4–(4-(3–(3(trifluoromethyl)phenyl)ureido)phenylamino)thieno[2,3-d]pyrimidine-6-carboxamido)butanoate] here?
A: 197 to 199 °C

Q: For `CCOC(=O)CCCNC(=O)c1sc2ncnc(Nc3ccc(Cl)cc3)c2c1C` [Compound 18c, Ethyl 4–(4-(4-chlorophenylamino)-5-methylthieno[2,3-d]pyrimidine-6-carboxamido)butanoate], which melting point is on record?
A: 138 °C

Q: For `CCOC(=O)CCNC(=O)c1sc2ncnc(Nc3ccc(NC(=O)Nc4cccc(C(F)(F)F)c4)cc3)c2c1C` [Compound 9c, Ethyl 3–(5-methyl-4–(4-(3(3(trifluoromethyl)phenyl)ureido)phenylamino)thieno[2,3-d]pyrimidine-6-carboxamido)propanoate], which melting point is on record?
A: 220 °C
